According to the supplement of paper PMC8882468:

Columns and labels:
Experiment in all cases: CTG-3D luminescence at 96 h relative to day-0 seeding control (ratio to day 0); higher = more growth / less cytotoxicity
HCI-001 = test system: HCI-001 (organoid from a triple-negative breast cancer xenograft)
Experimental: (§1)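 PDX-derived breast cancer organoids (PDxO) in 384-well Matrigel plates, 8-point dose (0.000000625-100 uM), 96 h at 37 C; CellTiter-Glo 3D luminescence normalised to the day-0 seeding control (mean of 4 technical replicates over mean of 4 day-0 wells).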

HCI-005.E2 = test system: HCI-005.E2 (organoid from a breast cancer xenograft with a HER2-positive history)
Experimental: as §1

HCI-008 = test system: HCI-008 (organoid from a HER2-enriched breast cancer xenograft)
Experimental: as §1

HCI-011.E2 = test system: HCI-011.E2 (organoid from an ER-positive breast cancer xenograft)
Experimental: as §1

HCI-023 = test system: HCI-023 (organoid from a triple-negative breast cancer xenograft)
Experimental: as §1

HCI-024 = test system: HCI-024 (organoid from a breast cancer xenograft)
Experimental: as §1

MDA-MB-231 = test system: MDA-MB-231
Experimental: as §1

O=c1[nH]cc(F)c(=O)[nH]1 [5-fluorouracil]
CTG-3D luminescence at 96 h
Conditions | 12.5 pM | 0.00025 µM | 0.005 µM | 0.1 µM | 1 µM | 10 µM | 100 µM | 625 fM
HCI-001, days in culture: 240 | 1.75 | 1.08 | 1.16 | 0.972 | 1.31 | 0.84 | 0.903 | 1.74
HCI-001, days in culture: 260 | 2.43 | 1.07 | 2.1 | 1.43 | 1.62 | 1.42 | 1.14 | 1.09
HCI-001, days in culture: 269 | 1.52 | 1.48 | 1.32 | 1.97 | 1.62 | 2.03 | 1.46 | 1.77
HCI-001, days in culture: 327 | 1.6 | 1.41 | 2.11 | 1.91 | 1.54 | 1.38 | 1.51 | 1.69
HCI-001, days in culture: 346 | 1.42 | 1.55 | 1.28 | 1.28 | 1.41 | 1.26 | 1.3 | 1.12
HCI-001, days in culture: 364 | 1.68 | 1.19 | 1.35 | 1.35 | 1.13 | 1.21 | 0.902 | 1.55
HCI-008, days in culture: 228 | 1.95 | 2.08 | 1.74 | 1.52 | 1.51 | 1.51 | 0.917 | 1.88
HCI-008, days in culture: 244 | 1.38 | 1.81 | 2.06 | 1.88 | 1.6 | 1.53 | 1.03 | 2.2
HCI-011.E2, days in culture: 74 | 1.83 | 2.05 | 1.91 | 1.77 | 2.19 | 2.63 | 1.57 | 1.62
HCI-023, days in culture: 111 | 1.56 | 1.34 | 0.973 | 1.17 | 0.928 | 0.875 | 0.571 | 1.57
HCI-023, days in culture: 128 | 1.51 | 1.68 | 1.54 | 1.89 | 1.4 | 1.92 | 1.01 | 1.58
HCI-024, days in culture: 105 | 1.58 | 1.5 | 1.45 | 1.66 | 1.59 | 1.53 | 0.681 | 2.03
HCI-024, days in culture: 122 | 2.23 | 2.19 | 1.64 | 1.97 | 1.98 | 2.04 | 0.857 | 3.11
HCI-024, days in culture: 163 | 2.3 | 2.61 | 1.89 | 2.32 | 2.29 | 1.9 | 1.21 | 2.13

CTG-3D luminescence at 96 h
Conditions | 12.5 pM | 0.00025 µM | 0.005 µM | 0.1 µM | 1 µM | 10 µM | 100 µM | 625 fM
HCI-005.E2 | 1.91 | 1.66 | 1.64 | 2.48 | 1.78 | 1.18 | 0.891 | 1.69
HCI-011.E2 | 1.56 | 1.46 | 1.7 | 1.81 | 1.73 | 2.08 | 1.35 | 1.63
MDA-MB-231 | 4.33 | 4.19 | 4.49 | 4.31 | 4.4 | 4.03 | 3.35 | 4.34
